Key:
[1] = target: HDAC8 (Homo sapiens (Human), UniProt Q9BY41); assay: HDAC8 inhibitory activity (fluorogenic HDAC substrate); type: biochemical; details: culture 30° C. for 2 hours
Method: (§1) 2×HDAC enzymes were dispensed in each well of the reaction plate except for the control well without HDAC enzyme, and buffer was dispensed in the control well without the enzyme. Using acoustic technology (Echo550, nanoliter range), compounds dissolved in 100% DMSO were added to the enzyme mixture, spun down, and pre-cultured at room temperature for 10 minutes. All reaction wells were placed with a 2× substrate mixture (fluorogenic HDAC substrate) to initiate the reaction and then spun down. Culture was performed at 30° C. for 1 hour for HDAC6 and 2 hours for HDAC8.
(§2) Afterwards, a developer was added along with trichostatin A to halt the reaction and develop fluorescence. Dynamics measurements were performed with Envision (Ex/Em=360/460 nm) for 20 minutes with 5-minute intervals, and values from endpoint reading were taken for analysis after the phenomenon reached a plateau.

[2] = target: HDAC6 (Homo sapiens (Human), UniProt Q9UBN7); assay: HDAC6 inhibitory activity (fluorogenic HDAC substrate); type: biochemical; details: culture 30° C. for 1 hour
Method: as §1, §2

[3] = MS (in mouse); type: in vitro ADME; design: unit not given here
[4] = MS (in human); type: in vitro ADME; design: unit not given here

Sequence of HDAC6 (Q9UBN7 whole entry): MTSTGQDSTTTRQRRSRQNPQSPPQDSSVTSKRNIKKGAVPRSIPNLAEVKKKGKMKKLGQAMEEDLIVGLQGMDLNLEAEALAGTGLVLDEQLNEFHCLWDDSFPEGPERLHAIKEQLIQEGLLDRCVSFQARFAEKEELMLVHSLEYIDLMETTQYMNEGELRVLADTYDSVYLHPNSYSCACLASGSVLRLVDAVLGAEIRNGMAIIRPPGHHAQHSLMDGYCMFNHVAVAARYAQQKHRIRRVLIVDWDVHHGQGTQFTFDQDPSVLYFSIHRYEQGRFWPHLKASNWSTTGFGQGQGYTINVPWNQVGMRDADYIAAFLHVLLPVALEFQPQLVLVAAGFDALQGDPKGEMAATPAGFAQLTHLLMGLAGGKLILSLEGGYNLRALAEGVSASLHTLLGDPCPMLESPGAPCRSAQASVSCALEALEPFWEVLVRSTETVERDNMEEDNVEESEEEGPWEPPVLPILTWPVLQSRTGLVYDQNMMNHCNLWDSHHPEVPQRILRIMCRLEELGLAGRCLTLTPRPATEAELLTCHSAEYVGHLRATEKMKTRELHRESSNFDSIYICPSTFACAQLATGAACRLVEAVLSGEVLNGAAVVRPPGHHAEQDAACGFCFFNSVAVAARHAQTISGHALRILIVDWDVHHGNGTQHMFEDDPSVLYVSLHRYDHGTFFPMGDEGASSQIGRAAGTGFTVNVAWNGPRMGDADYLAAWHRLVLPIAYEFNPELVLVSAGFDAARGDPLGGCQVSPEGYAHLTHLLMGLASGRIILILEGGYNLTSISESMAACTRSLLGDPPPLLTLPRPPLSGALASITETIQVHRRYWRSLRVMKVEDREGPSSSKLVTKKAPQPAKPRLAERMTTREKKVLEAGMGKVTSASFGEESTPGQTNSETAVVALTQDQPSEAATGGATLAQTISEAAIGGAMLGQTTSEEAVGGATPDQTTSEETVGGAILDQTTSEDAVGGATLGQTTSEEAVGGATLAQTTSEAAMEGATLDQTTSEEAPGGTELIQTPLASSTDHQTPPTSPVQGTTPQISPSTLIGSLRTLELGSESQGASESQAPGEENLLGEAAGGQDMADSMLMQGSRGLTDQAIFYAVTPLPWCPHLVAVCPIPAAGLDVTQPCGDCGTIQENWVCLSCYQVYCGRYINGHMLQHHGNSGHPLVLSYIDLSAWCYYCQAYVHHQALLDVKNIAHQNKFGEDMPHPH
Sequence of HDAC8 (Q9BY41 whole entry, species assumed): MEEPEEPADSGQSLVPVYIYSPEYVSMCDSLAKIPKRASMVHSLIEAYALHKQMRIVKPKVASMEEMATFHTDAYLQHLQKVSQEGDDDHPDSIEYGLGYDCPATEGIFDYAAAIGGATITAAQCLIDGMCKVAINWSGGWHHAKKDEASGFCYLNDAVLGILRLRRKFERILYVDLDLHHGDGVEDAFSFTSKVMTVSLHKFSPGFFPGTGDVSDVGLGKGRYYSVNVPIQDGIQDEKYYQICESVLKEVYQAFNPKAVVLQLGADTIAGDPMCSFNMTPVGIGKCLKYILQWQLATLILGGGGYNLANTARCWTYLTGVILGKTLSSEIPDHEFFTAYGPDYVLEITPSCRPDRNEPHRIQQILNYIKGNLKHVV

SMILES | IC50 [1] | IC50 [2] | MS (in mouse) [3] | MS (in human) [4]
O=C(NO)c1ccc2cn(Cc3cccc(OC(F)(F)F)c3)nc2c1 [Compound 56, 2-(3-Trifluoromethoxybenzyl)-2H-indazole-6-carboxylic acid hydroxyamide] | 1020 nM | 4.4 nM |  | 
COc1ccc(Cn2cc3ccc(C(=O)NO)cc3n2)cc1 [Compound 51, 2-(4-Methoxybenzyl)-2H-indazole-6-carboxylic acid hydroxyamide] | 765 nM | 5.4 nM | 98.6 | 76.7
O=C(NO)c1ccc2cn(CCc3ccccc3)nc2c1 [Compound 59, 2-Phenethyl-2H-indazole-6-carboxylic acid hydroxyamide] | 1170 nM | 4 nM |  | 
O=C(NO)c1ccc2cn(Cc3cccc(Oc4ccccc4)c3)nc2c1 [Compound 73, 2-(3-Phenoxybenzyl)-2H-indazole-6-carboxylic acid hydroxyamide] | 2000 nM | 22.8 nM |  | 
O=C(NO)c1ccc2cn(Cc3ccc(OC(F)F)cc3)nc2c1 [Compound 62, 2-(4-Difluoromethoxybenzyl)-2H-indazole-6-carboxylic acid hydroxyamide] | 500 nM | 4.1 nM |  | 
COc1cccc(Cn2cc3ccc(C(=O)NO)cc3n2)c1 [Compound 70, 2-(3-Methoxybenzyl)-2H-indazole-6-carboxylic acid hydroxyamide] | 967 nM | 1.8 nM |  | 
COc1ccc(CCn2cc3ccc(C(=O)NO)cc3n2)cc1 [Compound 60, 2-(2-4-Methoxyphenylethyl)-2H-indazole-6-carboxylic acid hydroxyamide] | 1100 nM | 4.7 nM |  | 
O=C(NO)c1ccc2cn(Cc3ccc(-c4ccccc4)cc3)nc2c1 [Compound 63, 2-Biphenyl-4-ylmethyl-2H-indazole-6-carboxylic acid hydroxyamide] | 1290 nM | 3.6 nM |  | 
O=C(NO)c1ccc2cn(Cc3cccc(C(F)(F)F)c3)nc2c1 [Compound 68, 2-(3-Trifluoromethylbenzyl)-2H-indazole-6-carboxylic acid hydroxyamide] | 738 nM | 3.3 nM |  | 
O=C(NO)c1ccc2cn(Cc3cc(F)cc(F)c3)nc2c1 [Compound 61, 2-(3,5-Difluorobenzyl)-2H-indazole-6-carboxylic acid hydroxyamide] | 877 nM | 3.9 nM |  | 
O=C(NO)c1cc2nn(Cc3cccc(Cl)c3)cc2cc1F [Compound 89, 2-(3-chlorobenzyl)-5-fluoro-2H-indazole-6-carboxylic acid hydroxyamide] | 2370 nM | 30.3 nM |  | 

The remaining lines, values ahead:

IC50 [1] | IC50 [2] | MS (in mouse) [3] | MS (in human) [4] | SMILES
8390 nM | 1.3 nM |  |  | O=C(NO)c1ccc2cn(Cc3cccc(Cl)c3)nc2c1 [Compound 67, 2-(3-Chlorobenzyl)-2H-indazole-6-carboxylic acid hydroxyamide]
870 nM | 4.2 nM |  |  | O=C(NO)c1ccc2cn(Cc3ccc4ccccc4c3)nc2c1 [Compound 58, 2-Naphthalen-2-ylmethyl-2H-indazole-6-carboxylic acid hydroxyamide]
814 nM | 3.8 nM |  |  | COc1cc(Cn2cc3ccc(C(=O)NO)cc3n2)cc(OC)c1 [Compound 72, 2-(3,5-Dimethoxybenzyl)-2H-indazole-6-carboxylic acid hydroxyamide]
593 nM | 3.4 nM |  |  | O=C(NO)c1ccc2cn(Cc3ccc(Br)cc3)nc2c1 [Compound 55, 2-(4-Bromobenzyl)-2H-indazole-6-carboxylic acid hydroxyamide]
598 nM | 3 nM |  |  | O=C(NO)c1ccc2cn(Cc3ccc(C(F)(F)F)cc3)nc2c1 [Compound 69, 2-(4-Trifluoromethylbenzyl)-2H-indazole-6-carboxylic acid hydroxyamide]
1520 nM | 6.7 nM |  |  | O=C(NO)c1ccc2cn(CCc3ccc(F)cc3)nc2c1 [Compound 65, 2-(2-4-Fluorophenylethyl)-2H-indazole-6-carboxylic acid hydroxyamide]
699 nM | 7.4 nM |  |  | Cc1ccc(Cn2cc3ccc(C(=O)NO)cc3n2)cc1 [Compound 52, 2-(4-Methylbenzyl)-2H-indazole-6-carboxylic acid hydroxyamide]
932 nM | 5.9 nM | 71.3 | 85.9 | O=C(NO)c1ccc2cn(Cc3ccc(F)cc3)nc2c1 [Compound 53, 2-(4-Fluorobenzyl)-2H-indazole-6-carboxylic acid hydroxyamide]
3840 nM | 74.3 nM |  |  | O=C(NO)c1cc2nn(Cc3ccccc3)cc2cc1F [Compound 88, 2-Benzyl-5-fluoro-2H-indazole-6-carboxylic acid hydroxyamide]
2120 nM | 13.5 nM |  |  | O=C(NO)c1ccc2cn(Cc3cccc(OCc4ccccc4)c3)nc2c1 [Compound 71, 2-(3-Benzyloxybenzyl)-2H-indazole-6-carboxylic acid hydroxyamide]
1320 nM | 2.6 nM | 79.3 | 97.6 | O=C(NO)c1ccc2cn(Cc3ccccc3)nc2c1 [Compound 50, 2-Benzyl-2H-indazole-6-carboxylic acid hydroxyamide]
2860 nM | 29.3 nM |  |  | CC(C)c1ccc(Cn2cc3ccc(C(=O)NO)cc3n2)cc1 [Compound 64, 2-(4-Isopropylbenzyl)-2H-indazole-6-carboxylic acid hydroxyamide]
2850 nM | 75.4 nM |  |  | COc1cccc(Cn2cc3cc(F)c(C(=O)NO)cc3n2)c1 [Compound 90, 2-(3-Methoxybenzyl)-5-fluoro-2H-indazole-6-carboxylic acid hydroxyamide]
1070 nM | 5.5 nM |  |  | O=C(NO)c1ccc2cn(Cc3ccc(OC(F)(F)F)cc3)nc2c1 [Compound 57, 2-(4-Trifluoromethoxybenzyl)-2H-indazole-6-carboxylic acid hydroxyamide]
776 nM | 2.7 nM | 40.8 | 49.3 | O=C(NO)c1ccc2cn(Cc3ccc(Cl)cc3)nc2c1 [Compound 54, 2-(4-Chlorobenzyl)-2H-indazole-6-carboxylic acid hydroxyamide]
1130 nM | 1.8 nM |  |  | O=C(NO)c1ccc2cn(Cc3cccc(F)c3)nc2c1 [Compound 66, 2-(3-Fluorobenzyl)-2H-indazole-6-carboxylic acid hydroxyamide]

Reference: patent US20250197369A1, “NOVEL HETEROCYCLIC INHIBITOR FOR HISTONE DEACETYLASE, AND PHARMACEUTICAL COMPOSITION COMPRISING SAME” (SOOKMYUNG WOMEN'S UNIVERSITY INDUSTRY-ACADEMIC COOPERATION …, priority 2022, published 2025)
